Experimental data from paper PMC7195871 (ACS synthetic biology, 2018).

How the values were obtained:
[1] = target: T1, PCM-F (pivalyl-CoA mutase fusion protein) (Xanthobacter versatilis, UniProt A7IQE5+A7IQE6); test: mutase conversion assay in crude E. coli lysate; type: biochemical; settings: vitamin B12-dependent mutase; without G-protein chaperone
T1 sequence (A7IQE5 1-559): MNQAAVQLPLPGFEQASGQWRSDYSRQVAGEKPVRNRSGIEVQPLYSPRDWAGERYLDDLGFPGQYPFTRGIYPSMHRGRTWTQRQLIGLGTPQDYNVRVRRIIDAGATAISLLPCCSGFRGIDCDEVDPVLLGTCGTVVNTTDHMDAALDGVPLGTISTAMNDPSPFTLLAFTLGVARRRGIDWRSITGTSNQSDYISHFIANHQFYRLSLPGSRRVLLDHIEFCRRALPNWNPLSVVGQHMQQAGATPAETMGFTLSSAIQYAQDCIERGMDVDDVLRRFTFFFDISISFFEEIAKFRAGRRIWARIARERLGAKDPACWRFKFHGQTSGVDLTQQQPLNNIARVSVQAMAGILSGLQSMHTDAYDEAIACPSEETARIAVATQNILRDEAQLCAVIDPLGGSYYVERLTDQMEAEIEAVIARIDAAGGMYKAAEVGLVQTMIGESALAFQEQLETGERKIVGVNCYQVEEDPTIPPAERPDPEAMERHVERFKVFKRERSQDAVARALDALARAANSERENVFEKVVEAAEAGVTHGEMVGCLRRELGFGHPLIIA
T1 sequence (A7IQE6 1-148): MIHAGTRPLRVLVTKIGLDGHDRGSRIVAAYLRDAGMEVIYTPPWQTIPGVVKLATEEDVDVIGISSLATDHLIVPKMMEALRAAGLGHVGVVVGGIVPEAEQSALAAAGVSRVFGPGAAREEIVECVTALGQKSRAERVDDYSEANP

[2] = target: T2, Ralstonia sp. ADH (Ralstonia sp. DSMZ 6428, UniProt C0IR58); test: alcohol dehydrogenase assay, aldehyde reduction; type: biochemical; settings: reduction of pivaldehyde to pivalcohol
T2 sequence (C0IR58 1-249): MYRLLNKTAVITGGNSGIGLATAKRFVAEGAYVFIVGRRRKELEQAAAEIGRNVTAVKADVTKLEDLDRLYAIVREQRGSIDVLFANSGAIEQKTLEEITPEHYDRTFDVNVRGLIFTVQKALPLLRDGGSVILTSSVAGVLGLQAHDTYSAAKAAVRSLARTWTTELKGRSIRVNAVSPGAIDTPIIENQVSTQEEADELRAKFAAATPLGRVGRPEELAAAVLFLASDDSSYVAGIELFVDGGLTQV

## CC(C)CC(=O)SCCNC(=O)CCNC(=O)[C@H](O)C(C)(C)COP(=O)(O)OP(=O)(O)OC[C@H]1O[C@@H](n2cnc3c(N)ncnc32)[C@H](O)[C@@H]1OP(=O)(O)O [isovaleryl-CoA]
[1]
  mutase conversion assay in crude E. coli lysate: significant activity in converting isovaleryl-CoA to pivalyl-CoA in crude cell lysates

## CC(C)(C)C=O [pivaldehyde]
[2]
  alcohol dehydrogenase assay, aldehyde reduction: Ralstonia sp. ADH showed the highest activity toward pivaldehyde

## CC(C)(C)C(=O)SCCNC(=O)CCNC(=O)[C@H](O)C(C)(C)COP(=O)(O)OP(=O)(O)OC[C@H]1O[C@@H](n2cnc3c(N)ncnc32)[C@H](O)[C@@H]1OP(=O)(O)O [pivalyl-CoA]
[1]
  mutase conversion assay in crude E. coli lysate: significant activity in converting isovaleryl-CoA to pivalyl-CoA in crude cell lysates
